From patent publication US12162896B2, “Salts and polymorphs of certain MCL-1 inhibitors” (Gilead Sciences, Inc., priority 2022, dated 2024)
Where a name gives a salt, the structure may show the parent alone.

system: not listed separately; assay: XRPD analysis of the sample post DVS (form change); type: physicochemical; conditions: sample after DVS cycles at 25° C.
Description: X-ray powder diffraction (XRPD) analysis was conducted on a diffractometer (PANalytical XPERT-PRO, PANalytical B. V., Almelo, Netherlands) using copper radiation (Cu Kα, λ=1.541874). Samples were spread evenly on a zero-background sample plate. The generator was operated at a voltage of 45 kV and amperage of 40 mA. Slits were Soller 0.02 rad, antiscatter 1.0°, and divergence. Scans were performed from 2 to 40° 2−θ with a 0.0167 step size. Data analysis was performed using X'Pert Data Viewer V1.2d (PANalytical B.V., Almelo, Netherlands).
(§1) Hygroscopicity was studied using dynamic vapor sorption (DVS, TA Q5000 SA, TA Instruments, New Castle, DE or DVS, DVS Intrinsic, Surface Measurement Systems, London, UK). A sample (2-20 mg) was placed in an aluminum DVS pan and loaded on the sample side of the twin pan balance. The water sorption and desorption were studied as a function of relative humidity (RH) at 25° C. In 10% RH increments, the relative humidity was increased from 40% RH to 90% RH and then decreased back to 0%, followed by repeating the full cycle from 0% RH up to 90% RH and back to 0% RH. […] Data analysis was performed using Universal Analysis 2000 Version 4.5A (TA Instruments, New Castle, DE) for TA DVS runs and Microsoft Excel for SMS DVS runs.

Structure (SMILES)	form change by XRPD post DVS
COc1nn(C)cc1C(=O)N[S@@]1(=O)=NC(=O)c2ccc3c(c2)N(C[C@@H]2CC[C@H]2[C@@H](OC)/C=C/C[C@H](C)C1)C[C@@]1(CCCc2cc(Cl)ccc21)CO3 [Form II]	no form change
COc1nn(C)cc1C(=O)N[S@@]1(=O)=NC(=O)c2ccc3c(c2)N(C[C@@H]2CC[C@H]2[C@@H](OC)/C=C/C[C@H](C)C1)C[C@@]1(CCCc2cc(Cl)ccc21)CO3 [DEA Salt Form 1]	no form change
COc1nn(C)cc1C(=O)N[S@@]1(=O)=NC(=O)c2ccc3c(c2)N(C[C@@H]2CC[C@H]2[C@@H](OC)/C=C/C[C@H](C)C1)C[C@@]1(CCCc2cc(Cl)ccc21)CO3 [Na salt Form 1]	no form change
COc1nn(C)cc1C(=O)N[S@@]1(=O)=NC(=O)c2ccc3c(c2)N(C[C@@H]2CC[C@H]2[C@@H](OC)/C=C/C[C@H](C)C1)C[C@@]1(CCCc2cc(Cl)ccc21)CO3 [K Salt Form 1]	no form change
COc1nn(C)cc1C(=O)N[S@@]1(=O)=NC(=O)c2ccc3c(c2)N(C[C@@H]2CC[C@H]2[C@@H](OC)/C=C/C[C@H](C)C1)C[C@@]1(CCCc2cc(Cl)ccc21)CO3 [Form III]	no form change
COc1nn(C)cc1C(=O)N[S@@]1(=O)=NC(=O)c2ccc3c(c2)N(C[C@@H]2CC[C@H]2[C@@H](OC)/C=C/C[C@H](C)C1)C[C@@]1(CCCc2cc(Cl)ccc21)CO3 [Form I]	no form change

system: not listed separately; assay: Competitive slurries of polymorph forms in EtOH; type: physicochemical; conditions: competitive slurries in EtOH

Structure (SMILES)	relative stability versus other unsolvated/desolvated forms
COc1nn(C)cc1C(=O)N[S@@]1(=O)=NC(=O)c2ccc3c(c2)N(C[C@@H]2CC[C@H]2[C@@H](OC)/C=C/C[C@H](C)C1)C[C@@]1(CCCc2cc(Cl)ccc21)CO3 [Form I]	higher stability

same assay, conditions: in EtOH

Structure (SMILES)	outcome of competitive slurry with Form I
COc1nn(C)cc1C(=O)N[S@@]1(=O)=NC(=O)c2ccc3c(c2)N(C[C@@H]2CC[C@H]2[C@@H](OC)/C=C/C[C@H](C)C1)C[C@@]1(CCCc2cc(Cl)ccc21)CO3 [Form II]	full conversion to Form I
COc1nn(C)cc1C(=O)N[S@@]1(=O)=NC(=O)c2ccc3c(c2)N(C[C@@H]2CC[C@H]2[C@@H](OC)/C=C/C[C@H](C)C1)C[C@@]1(CCCc2cc(Cl)ccc21)CO3 [Form IV]	full conversion to Form I
COc1nn(C)cc1C(=O)N[S@@]1(=O)=NC(=O)c2ccc3c(c2)N(C[C@@H]2CC[C@H]2[C@@H](OC)/C=C/C[C@H](C)C1)C[C@@]1(CCCc2cc(Cl)ccc21)CO3 [Form III]	full conversion to Form I

target: MCL-1 (Homo sapiens, UniProt Q07820); assay: not given; conditions: stated in background, WO 2019/222112; cited from earlier work
Sequence (Q07820 whole entry, species assumed): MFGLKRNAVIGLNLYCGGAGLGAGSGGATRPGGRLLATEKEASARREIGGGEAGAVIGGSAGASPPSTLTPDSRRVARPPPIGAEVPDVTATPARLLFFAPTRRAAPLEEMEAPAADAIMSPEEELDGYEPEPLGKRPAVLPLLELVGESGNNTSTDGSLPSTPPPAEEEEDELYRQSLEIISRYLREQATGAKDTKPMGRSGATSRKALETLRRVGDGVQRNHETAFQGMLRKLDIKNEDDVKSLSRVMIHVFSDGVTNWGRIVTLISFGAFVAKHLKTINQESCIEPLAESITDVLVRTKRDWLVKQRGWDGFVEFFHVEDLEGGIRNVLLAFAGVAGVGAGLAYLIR

Structure (SMILES)	MCL-1 inhibition (in words)
COc1nn(C)cc1C(=O)N[S@@]1(=O)=NC(=O)c2ccc3c(c2)N(C[C@@H]2CC[C@H]2[C@@H](OC)/C=C/C[C@H](C)C1)C[C@@]1(CCCc2cc(Cl)ccc21)CO3 [Compound 1]	effective MCL-1 inhibitor

system: not listed separately; assay: Hygroscopicity by dynamic vapor sorption (DVS); type: physicochemical; conditions: 0% to 90% RH, about 25° C.
Description: as §1

Structure (SMILES)	hygroscopicity (DVS analysis, in words)
COc1nn(C)cc1C(=O)N[S@@]1(=O)=NC(=O)c2ccc3c(c2)N(C[C@@H]2CC[C@H]2[C@@H](OC)/C=C/C[C@H](C)C1)C[C@@]1(CCCc2cc(Cl)ccc21)CO3 [Form II]	slightly hygroscopic
COc1nn(C)cc1C(=O)N[S@@]1(=O)=NC(=O)c2ccc3c(c2)N(C[C@@H]2CC[C@H]2[C@@H](OC)/C=C/C[C@H](C)C1)C[C@@]1(CCCc2cc(Cl)ccc21)CO3 [DEA Salt Form 1]	moderately hygroscopic
COc1nn(C)cc1C(=O)N[S@@]1(=O)=NC(=O)c2ccc3c(c2)N(C[C@@H]2CC[C@H]2[C@@H](OC)/C=C/C[C@H](C)C1)C[C@@]1(CCCc2cc(Cl)ccc21)CO3 [Na salt Form 1]	moderately hygroscopic
COc1nn(C)cc1C(=O)N[S@@]1(=O)=NC(=O)c2ccc3c(c2)N(C[C@@H]2CC[C@H]2[C@@H](OC)/C=C/C[C@H](C)C1)C[C@@]1(CCCc2cc(Cl)ccc21)CO3 [K Salt Form 1]	moderately hygroscopic
COc1nn(C)cc1C(=O)N[S@@]1(=O)=NC(=O)c2ccc3c(c2)N(C[C@@H]2CC[C@H]2[C@@H](OC)/C=C/C[C@H](C)C1)C[C@@]1(CCCc2cc(Cl)ccc21)CO3 [Form III]	moderately hygroscopic
COc1nn(C)cc1C(=O)N[S@@]1(=O)=NC(=O)c2ccc3c(c2)N(C[C@@H]2CC[C@H]2[C@@H](OC)/C=C/C[C@H](C)C1)C[C@@]1(CCCc2cc(Cl)ccc21)CO3 [Form I]	slightly hygroscopic

same assay, conditions: ambient conditions

Structure (SMILES)	moisture rapidly absorbed at ambient conditions
COc1nn(C)cc1C(=O)N[S@@]1(=O)=NC(=O)c2ccc3c(c2)N(C[C@@H]2CC[C@H]2[C@@H](OC)/C=C/C[C@H](C)C1)C[C@@]1(CCCc2cc(Cl)ccc21)CO3 [K Salt Form 1]	4-6 wt %

same assay, conditions: between 0% and 90% RH at about 25° C.

Structure (SMILES)	water (moisture) absorbed by DVS
COc1nn(C)cc1C(=O)N[S@@]1(=O)=NC(=O)c2ccc3c(c2)N(C[C@@H]2CC[C@H]2[C@@H](OC)/C=C/C[C@H](C)C1)C[C@@]1(CCCc2cc(Cl)ccc21)CO3 [Form II]	up to 1.1 wt %
COc1nn(C)cc1C(=O)N[S@@]1(=O)=NC(=O)c2ccc3c(c2)N(C[C@@H]2CC[C@H]2[C@@H](OC)/C=C/C[C@H](C)C1)C[C@@]1(CCCc2cc(Cl)ccc21)CO3 [DEA Salt Form 1]	about 5.5 wt %
COc1nn(C)cc1C(=O)N[S@@]1(=O)=NC(=O)c2ccc3c(c2)N(C[C@@H]2CC[C@H]2[C@@H](OC)/C=C/C[C@H](C)C1)C[C@@]1(CCCc2cc(Cl)ccc21)CO3 [Na salt Form 1]	about 7.5 wt %
COc1nn(C)cc1C(=O)N[S@@]1(=O)=NC(=O)c2ccc3c(c2)N(C[C@@H]2CC[C@H]2[C@@H](OC)/C=C/C[C@H](C)C1)C[C@@]1(CCCc2cc(Cl)ccc21)CO3 [K Salt Form 1]	about 11 wt %
COc1nn(C)cc1C(=O)N[S@@]1(=O)=NC(=O)c2ccc3c(c2)N(C[C@@H]2CC[C@H]2[C@@H](OC)/C=C/C[C@H](C)C1)C[C@@]1(CCCc2cc(Cl)ccc21)CO3 [Form III]	up to 5 wt %
COc1nn(C)cc1C(=O)N[S@@]1(=O)=NC(=O)c2ccc3c(c2)N(C[C@@H]2CC[C@H]2[C@@H](OC)/C=C/C[C@H](C)C1)C[C@@]1(CCCc2cc(Cl)ccc21)CO3 [Form I]	about 1.4 wt %
